Patent US20040167459A1, “Methods and systems for controlling and/or increasing iontophoretic flux” (priority 2003, published 2004)
Like-named read-outs stand apart in the source and are kept apart here.

How the values were obtained:
[1] = rabbit sclera
Method: (§1) FIG. 1 schematically depicts the setup employed to carry out human epidermal membrane (HEM) iontophoretic experiments described below. Scleral experiments were conducted using a simple side-by-side diffusion apparatus known to one of ordinary skill in the art. Conductive silver paint was purchased from Ladd Research Technologies (Williston, Vt.) and silver foil from EM-Science (Gibbstown, N.J.). Silver chloride powder, phosphate buffered saline (PBS, pH 7.4) tablets were purchased from Sigma (St. Louis, Mo.). ^14C-sodium salicylate was purchased from ARC (St. Louis, Mo.) and non-radiolabeled sodium salicylate from Sigma. Ultimate Gold® scintillation cocktail was purchased from Packard (Meriden, Conn.) and liquid scintillation counting was performed by a Packard TriCarb Model 1900 TR liquid scintillation analyzer. A custom built AC waveform generator power supply (EM-Tech Electronics, Lindon Utah) was used as the permeabilzation power supply for skin studies. The DC driving force for the skin studies was a 9 V battery (Duracell) combined with a fixed resistor. For scleral studies, there was no permeabilization source needed and all iontophoresis was conducted using a Phoresor PM-800 (Iomed, Inc., Salt Lake City, Utah). Human epidermal membrane was obtained from licensed sources and experiments were conducted under local IRB approval. Scleral tissue was obtained from freshly euthanized rabbit cadavers under local IACUC approval. All water was >18 MΩ prepared by the Milli-Q process. Ionac® MA-3475 (Sybron Chemical, Inc., Birmingham, N.J.) was pre-loaded with sodium salicylate by vigorously stirring the membranes in a 0.15 M sodium salicylate solution spiked with the radiolabel. Loading was considered complete when the DPM counts in the loading solution varied by less than 10% over a 12 hour period. The MA-3475 membranes were assembled in a group of five membranes and placed in the diffusion cell setup.
Scleral transport experiments were conducted using a side-by-side type diffusion cell with an open diffusional area of 0.2 cm^2. The cells were separated by a piece of excised scleral tissue from adult rabbits. The diffusion cells were assembled with the conjunctival side facing the donor compartment.
(§2) The DC iontophoresis driving electrodes were prepared by dipping a silver foil strip into a 1:1 (w/w) mixture of conductive silver paint and finely ground silver chloride. After dipping, the electrodes were hung and allowed to cure at room temperature overnight.
(§3) The receiver compartment was filled with 0.15 M PBS. In each experiment, the donor compartment contained 0.15 M sodium salicylate in water spiked with 25 nCi/ml ^14C-sodium salicylate.
Direct current DC was applied at currents of 0.5, 1, and 2 mA with a Phoresor. Every 30 minutes, the entire volume of the receiver solution was removed, mixed with scintillation cocktail, and analyzed by liquid scintillation counting. All experiments were conducted in triplicate.
The amount of ^14C-salicylate transported across the membrane was plotted as a function of time. Permeabilities were determined from the equations (8) and (9) and plotted and analyzed as in Example 1.

[2] = HEM; for Transference number: 0.5 mA DC
Method: as §1
Permeabilized skin transport experiments were conducted using a side-by-side type diffusion cell with an open diffusional area of 0.85 Cm^2. The cells were separated by a piece of dermatomed, heat-separated human epidermal membrane with the stratum corneum facing the donor compartment.
as §2, with “overnight. The AC permeabilizing electrodes were made by mechanically drilling holes into a piece of silver foil and electro-coating the perforated silver foil with AgCl by submersion in a saturated KCl solution and passing a 1 mA current for 10 minutes.” for “overnight.”
as §3
A 1000 Hz AC potential was applied to decrease and maintain the skin resistance to 2 and 0.5 kΩ and a 9 V battery was connected to a fixed resistor in series to yield a direct current of 0.5 mA. Every 30 minutes, the entire volume of the receiver solution was removed, mixed with scintillation cocktail, and analyzed by liquid scintillation counting. All experiments were conducted at least in duplicate.
The amount of ^14C-salicylate transported across the membrane was plotted as a function of time. Permeabilities were determined from the following equations: [formula]
where J is the flux, Q is the amount of solute transported across the membrane, A is the area of the exposed membrane, t is time, P is the permeability, and CD is the concentration of the solute in the donor solution.
Permeabilities were plotted as a function of time and the slope of the best-fit line to the steady state portion of the curve was determined using regression analysis.

O=C([O-])c1ccccc1O.[Na+] [Salicylate, sodium salicylate]
increase of transference number by the permselective membrane [1]: between two- and three-fold
Salicylate Flux ([1]; DC 0.4 mA, PSM +): 21 ± 0.3 µg/min
Transference number ([1]; DC 0.4 mA, PSM +): 0.675 ± 0.073
Salicylate Flux ([1]; DC 0.4 mA, PSM none): 13 ± 0.1 µg/min
Transference number ([1]; DC 0.4 mA, PSM none): 0.385 ± 0.007
Salicylate Flux ([1]; DC 1.0 mA, PSM +): 48 ± 1.0 µg/min
Transference number ([1]; DC 1.0 mA, PSM +): 0.563 ± 0.013
Salicylate Flux ([1]; DC 1.0 mA, PSM none): 21 ± 0.2 µg/min
Transference number ([1]; DC 1.0 mA, PSM none): 0.235 ± 0.007
Salicylate Flux ([1]; DC 2.0 mA, PSM +): 109 ± 7.0 µg/min
Transference number ([1]; DC 2.0 mA, PSM +): 0.650 ± 0.048
Salicylate Flux ([1]; DC 2.0 mA, PSM none): 36 ± 2.0 µg/min
Transference number ([1]; DC 2.0 mA, PSM none): 0.210 ± 0.014
enhancement of salicylate flux by the permselective membrane ([1]; depending on current level): two- to three-fold
current carried by the drug ([1]; with permselective membrane): approximately 65%
Transference number ([2]; AC + DC, 0.5 kΩ, PSM +): 0.32 ± 0.03
Transference number ([2]; AC + DC, 0.5 kΩ, PSM none): 0.12 ± 0.01
Transference number ([2]; AC + DC, 2 kΩ, PSM +): 0.16 ± 0.03
Transference number ([2]; AC + DC, 2 kΩ, PSM none): 0.12 ± 0.01
Transference number ([2]; DC only, PSM +): 0.18 ± 0.03
Transference number ([2]; DC only, PSM none): 0.13 ± 0.01
increase in current carried by the drug due to permselective membrane ([2]; AC permeabilization, target resistance 2 kΩ): about 30%
current carried by the drug ([2]; AC permeabilization, target resistance 2 kΩ, no permselective membrane): 12%
current carried by the drug ([2]; AC permeabilization, target resistance 2 kΩ, permselective membrane present): 16%
gain in current carried by the drug due to permselective material ([2]; purely DC iontophoresis): about 40%
current carried by the drug ([2]; purely DC iontophoresis, permselective material present): 18%
current carried by the drug ([2]; purely DC iontophoresis, without permselective material): 13%
increase in electrical transference efficiency due to permselective membrane ([2]; target resistance 0.5 kΩ): ~300%
electrical transference efficiency ([2]; target resistance 0.5 kΩ, with permselective membrane): 32%
electrical transference efficiency ([2]; target resistance 0.5 kΩ, without permselective membrane): 12%
